Tests used:
LDHA [1] = biological target: T1, LDHA (Homo sapiens, UniProt P00338); assay: LDHA enzyme inhibition; format: biochemical; settings: 6g vs 6f
PAMPA permeability = format: in vitro ADME
LDHB = LDHB (Homo sapiens, UniProt P07195); assay: LDHB enzyme inhibition; format: biochemical
LDHA [2] = biological target: T1, LDHA; assay: Binding to LDHA by SPR; settings: for SPR τ: residence time on LDHA
Rat microsomal stability = format: in vitro ADME; settings: microsomal data
[3] = system: A673 Ewing's Sarcoma line; assay: Inhibition of proliferation; format: cell-based; settings: A673 cells

Sequence of LDHB (P07195 whole entry): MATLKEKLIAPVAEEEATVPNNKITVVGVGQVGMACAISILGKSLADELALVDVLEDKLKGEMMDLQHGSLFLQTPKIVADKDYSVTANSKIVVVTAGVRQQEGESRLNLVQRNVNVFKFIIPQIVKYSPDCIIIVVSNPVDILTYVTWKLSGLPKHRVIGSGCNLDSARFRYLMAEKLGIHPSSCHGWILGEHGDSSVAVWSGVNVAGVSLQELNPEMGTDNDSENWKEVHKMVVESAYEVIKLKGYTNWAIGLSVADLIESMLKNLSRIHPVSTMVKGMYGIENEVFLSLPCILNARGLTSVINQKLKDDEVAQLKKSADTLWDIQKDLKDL

## NS(=O)(=O)c1ccc(Cc2cn(-c3nc(C(=O)O)cs3)nc2-c2cccc(OCc3cccnc3)c2)cc1 [6g]
LDHA [1]
  fold less potent in LDHA inhibition compared with 6f: ~ 3 fold

## NS(=O)(=O)c1ccc(Cc2c(-c3ccc(F)c(OCC4CC4(F)F)c3)nn(-c3nc(C(=O)O)cs3)c2CC2CC2)cc1F (centres unmarked) [12b]
PAMPA permeability
  PAMPA Perm: 4.9 ×10⁻⁶ cm/s
LDHB
  IC50: 3 nM
LDHA [2]
  binding to LDHA by SPR (in words): very tight binding
  residence time / dissociation kinetics by SPR (in words): long residence times
  SPR τ: 21,052 s
Rat microsomal stability
  metabolic stability (in words): reasonable

## NS(=O)(=O)c1ccc(Cc2c(-c3ccc(F)c(OC4CC4)c3)nn(-c3nc(C(=O)O)cs3)c2CC2CC2)cc1F [12e]
PAMPA permeability
  PAMPA Perm: 5.8 ×10⁻⁶ cm/s
LDHB
  IC50: 3 nM
LDHA [2]
  binding to LDHA by SPR (in words): very tight binding
  residence time / dissociation kinetics by SPR (in words): long residence times
  SPR τ: 19,230 s
Rat microsomal stability
  metabolic stability (in words): reasonable

## NS(=O)(=O)c1ccc(Cc2c(-c3cccc(OCc4ccccc4)c3)nn(-c3nc(C(=O)O)cs3)c2CC2CC2)cc1F [12g]
PAMPA permeability
  PAMPA Perm: 1.1 ×10⁻⁶ cm/s
[3]
  proliferation IC50 values (in words): submicromolar
LDHB
  IC50: 5 nM
LDHA [2]
  SPR τ: 88,496 s

## NS(=O)(=O)c1ccc(Cc2c(-c3ccc(F)c(OCc4cccc(F)c4)c3)nn(-c3nc(C(=O)O)cs3)c2CC2CC2)cc1F [12h]
PAMPA permeability
  PAMPA Perm: 2.9 ×10⁻⁶ cm/s
[3]
  proliferation IC50 values (in words): submicromolar
LDHB
  IC50: 5 nM
LDHA [2]
  binding to LDHA by SPR (in words): very tight binding
  residence time / dissociation kinetics by SPR (in words): long residence times
  SPR τ: 13,568 s
Rat microsomal stability
  metabolic stability (in words): quite poor

## NS(=O)(=O)c1ccc(Cc2c(-c3ccc(F)c(OCc4ccc(C(F)(F)F)o4)c3)nn(-c3nc(C(=O)O)cs3)c2CC2CC2)cc1F [12j]
PAMPA permeability
  PAMPA Perm: 12 ×10⁻⁶ cm/s
[3]
  proliferation IC50 values (in words): submicromolar
LDHB
  IC50: 6 nM
LDHA [2]
  binding to LDHA by SPR (in words): very tight binding
  residence time / dissociation kinetics by SPR (in words): long residence times
  SPR τ: 100,000 s

## Cc1ccc(Oc2cc(-c3nn(-c4nc(C(=O)O)cs4)c(CC4CC4)c3Cc3ccc(S(N)(=O)=O)c(F)c3)ccc2F)cc1 [12p]
PAMPA permeability
  PAMPA Perm: 13 ×10⁻⁶ cm/s
[3]
  proliferation IC50 values (in words): submicromolar
LDHB
  IC50: 19 nM
LDHA [2]
  binding to LDHA by SPR (in words): very tight binding
  residence time / dissociation kinetics by SPR (in words): long residence times
  SPR τ: 9,708 s
Rat microsomal stability
  metabolic stability (in words): quite poor

## NS(=O)(=O)c1ccc(Cc2c(-c3cccc(N4CCOCC4)c3)nn(-c3nc(C(=O)O)cs3)c2CC2CC2)cc1F [13a]
PAMPA permeability
  PAMPA Perm: 1.6 ×10⁻⁶ cm/s
LDHB
  IC50: 8 nM
LDHA [2]
  residence time / dissociation kinetics by SPR (in words): faster dissociation kinetics
  SPR τ: 286 s

## NS(=O)(=O)c1ccc(Cc2c(-c3cccc(Nc4ccccc4)c3)nn(-c3nc(C(=O)O)cs3)c2CC2CC2)cc1 [13h]
PAMPA permeability
  PAMPA Perm: 4.4 ×10⁻⁶ cm/s
LDHB
  IC50: 1 nM
LDHA [2]
  residence time / dissociation kinetics by SPR (in words): faster dissociation kinetics
  SPR τ: 59 s

## NS(=O)(=O)c1ccc(Cc2c(-c3ccc(F)c(NC(=O)c4ccccc4)c3)nn(-c3nc(C(=O)O)cs3)c2CC2CC2)cc1F [13i]
PAMPA permeability
  PAMPA Perm: 6.4 ×10⁻⁶ cm/s
LDHB
  IC50: 2 nM
Rat microsomal stability
  metabolic stability (in words): good stability

## NS(=O)(=O)c1ccc(Cc2c(-c3ccc(F)c(C(=O)N4CCCC4)c3)nn(-c3nc(C(=O)O)cs3)c2CC2CC2)cc1F [14b]
PAMPA permeability
  PAMPA Perm: 5.7 ×10⁻⁶ cm/s
LDHB
  IC50: 4 nM
Rat microsomal stability
  metabolic stability (in words): good stability

## NS(=O)(=O)c1ccc(Cc2c(-c3ccc(F)c(C(=O)NCc4ccccc4)c3)nn(-c3nc(C(=O)O)cs3)c2CC2CC2)cc1F [14d]
PAMPA permeability
  PAMPA Perm: 8.7 ×10⁻⁶ cm/s
LDHB
  IC50: 2 nM
